Assay results: article PMC5152921, “Evolutionary and Functional Diversification of the Vitamin D Receptor-Lithocholic Acid Partnership” (PLoS ONE, 2016)

How the values were obtained:
Medaka VDRα = Medaka VDRα (Oryzias latipes, UniProt B2CCA0); experiment: Competitive ligand binding assay ([3H]-1,25D3 displacement); conditions: lysate with VDR and human RXRWT; 4 nM [3H]-1,25D3; 18 hours at 4°C; Cheng-Prusoff; mean ± SEM
Method: (§1) Recombinant VDR and human RXRWT lysates were prepared from transfected COS7 cells (American Type Culture Collection #CRL-1651) as described in detail previously. Lysates were diluted 10-fold in ice-cold assay buffer (10 mM Tris HCl, 150 mM KCl, 1 mM EDTA, 0.3 mM ZnCl2, 5 mM DTT, and 1x protease inhibitor cocktail (100 μM AEBSF, 80 nM aprotinin, 5 μM bestatin, 1.5 μM E-64 (for cysteine proteases), 2 μM leupeptin, 1 μM pepstatin A), pH 7.5). […] Reactions were shaken to mix and incubated for 18 hours at 4°C. Bound and free ligand were separated with the addition of 80 μL of ice-cold separation buffer (2.5% (w/v) activated charcoal, 0.5% (w/v) dextran, 100 mM Na2HPO4, 39 mM NaH2PO4, 150 mM NaCl, 15 mM NaN3, 10% gelatin, pH 7.0), and incubated at 4°C for 15 minutes with shaking every 5 minutes. Reactions were centrifuged at 5,000 x g for 5 minutes at 4°C, and 200 μL of the supernatant containing the VDR-bound ligands was removed for scintillation counting.
(§2) Total binding was determined using lysate from cells transfected with VDR, and nonspecific binding was determined using lysate from cells transfected with the empty pSG5 vector. Specific binding was determined by subtracting non-specific binding counts from the total binding counts.

Zebrafish VDRα = target: T1, Zebrafish VDRα (Danio rerio, UniProt Q9PTN2); experiment: as above; conditions: lysate with VDR and human RXRWT; 4 nM [3H]-1,25D3; 18 hours at 4°C; Cheng-Prusoff; mean ± SEM
T1 construct: 89.7 ng/well of full-length pSG5-VDR was co-transfected; expressed in transfected cells; host or cells: COS7
T1 sequence (Q9PTN2 1-453): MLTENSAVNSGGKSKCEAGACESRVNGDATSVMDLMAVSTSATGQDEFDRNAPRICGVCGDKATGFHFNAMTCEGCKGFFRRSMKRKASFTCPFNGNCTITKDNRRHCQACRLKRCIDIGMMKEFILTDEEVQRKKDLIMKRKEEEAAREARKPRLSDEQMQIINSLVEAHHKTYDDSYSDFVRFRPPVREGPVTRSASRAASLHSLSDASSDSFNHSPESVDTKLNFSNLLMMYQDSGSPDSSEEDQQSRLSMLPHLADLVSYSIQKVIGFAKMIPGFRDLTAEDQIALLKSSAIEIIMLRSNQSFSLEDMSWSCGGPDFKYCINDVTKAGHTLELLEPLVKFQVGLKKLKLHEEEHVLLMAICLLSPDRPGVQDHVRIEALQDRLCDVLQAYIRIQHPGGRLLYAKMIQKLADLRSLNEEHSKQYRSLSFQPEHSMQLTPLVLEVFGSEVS
T1 sequence (P19793 1-462 partner): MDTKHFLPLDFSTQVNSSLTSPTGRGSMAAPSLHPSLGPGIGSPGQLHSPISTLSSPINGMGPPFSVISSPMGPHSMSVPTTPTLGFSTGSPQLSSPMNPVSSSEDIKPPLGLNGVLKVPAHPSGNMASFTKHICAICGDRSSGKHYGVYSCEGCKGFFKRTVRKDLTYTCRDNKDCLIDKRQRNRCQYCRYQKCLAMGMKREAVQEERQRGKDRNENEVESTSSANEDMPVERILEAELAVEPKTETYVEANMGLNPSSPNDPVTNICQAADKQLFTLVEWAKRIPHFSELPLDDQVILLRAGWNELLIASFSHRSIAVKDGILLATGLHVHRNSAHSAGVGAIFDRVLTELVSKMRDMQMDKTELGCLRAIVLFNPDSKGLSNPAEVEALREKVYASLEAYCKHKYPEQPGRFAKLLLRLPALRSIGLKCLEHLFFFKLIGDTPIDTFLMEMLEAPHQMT
Method: as §1, §2

Zebrafish VDRβ = target: T2, Zebrafish VDRβ (Danio rerio, UniProt Q1L673); experiment: Transient transactivation assay (XREM-Luc, HepG2); assay type: cell-based; design: expressed in transfected cells; host or cells: HepG2; conditions: 100 μM LCA; co-transfected human RXRWT; vs VDR alone
T2 sequence (Q1L673 1-422): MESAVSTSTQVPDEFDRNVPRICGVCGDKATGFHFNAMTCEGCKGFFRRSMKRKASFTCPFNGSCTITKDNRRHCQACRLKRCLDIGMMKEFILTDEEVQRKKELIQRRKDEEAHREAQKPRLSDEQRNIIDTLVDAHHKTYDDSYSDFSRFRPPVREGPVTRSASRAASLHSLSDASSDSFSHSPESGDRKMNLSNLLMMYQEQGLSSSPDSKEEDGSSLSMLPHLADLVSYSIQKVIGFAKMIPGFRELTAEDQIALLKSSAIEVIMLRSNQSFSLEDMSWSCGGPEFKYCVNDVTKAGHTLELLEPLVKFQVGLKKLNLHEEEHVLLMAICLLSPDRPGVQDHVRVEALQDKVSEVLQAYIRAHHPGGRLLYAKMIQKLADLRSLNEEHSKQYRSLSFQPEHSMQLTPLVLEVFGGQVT
Method: HepG2 cells (American Type Culture Collection #HB-8065) were cultured in T75 flasks with vented caps (Corning Life Sciences, Corning, NY) using Minimum Essential Medium (MEM) with phenol red supplemented with 10% fetal bovine serum, 1 mM sodium pyruvate, and 1X MEM non-essential amino acids. Cells were maintained following standard protocols in a 5% CO2 incubator set at 37°C, and split when 80–90% confluent.
For the transient transactivation assays, HepG2 cells were seeded in 96-well tissue culture plates at a density of 2.5x10^4 cells per well in complete phenol red-free MEM, and allowed to recover overnight. Transfections were performed the following day using Lipofectamine 2000 (Life Technologies, Grand Island, NY) as described previously. […] LCA-mediated VDR transactivation (fold activation) was calculated as the ratio of the VDR luciferase response relative to the empty vector control. […] VDR response in the absence of coregulators was analyzed using a 1-way ANOVA followed by Dunnett’s multiple comparisons test. To examine the effects of different coregulators on VDR activation, data were analyzed using a 2-way ANOVA followed by Bonferroni’s multiple comparisons test in GraphPad Prism (GraphPad Inc, San Diego, CA).

Chain of Medaka VDRα (B2CCA0 entry or part of it, one chain of several): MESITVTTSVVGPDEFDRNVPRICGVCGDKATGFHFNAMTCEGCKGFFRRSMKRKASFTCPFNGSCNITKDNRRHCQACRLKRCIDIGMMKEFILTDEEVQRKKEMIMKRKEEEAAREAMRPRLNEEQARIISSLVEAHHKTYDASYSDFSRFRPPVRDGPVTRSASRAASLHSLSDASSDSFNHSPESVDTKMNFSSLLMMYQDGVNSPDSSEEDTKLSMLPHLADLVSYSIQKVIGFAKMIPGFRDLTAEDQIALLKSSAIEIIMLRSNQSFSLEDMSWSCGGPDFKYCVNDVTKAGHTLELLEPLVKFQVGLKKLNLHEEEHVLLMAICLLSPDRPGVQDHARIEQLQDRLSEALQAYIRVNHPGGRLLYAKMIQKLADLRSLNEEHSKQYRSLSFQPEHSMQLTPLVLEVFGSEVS

`C[C@H](CCC(=O)O)[C@H]1CC[C@H]2[C@@H]3CC[C@@H]4C[C@H](O)CC[C@]4(C)[C@H]3CC[C@]12C` [LCA, 5β-cholanic acid-3α-ol] was tested, and the Ki (Medaka VDRα) was 6.5 ± 1.9 µM, the Ki (Zebrafish VDRα) was 5.5 ± 1.9 µM and the “Effect of exogenous human RXRWT on VDR transactivation” value (Zebrafish VDRβ) was “significantly enhanced transactivation”.
